In patent US11814367B2, “Inhibitors of glycogen synthase 1 (GYS1) and methods of use thereof” (Maze Therapeutics, Inc., priority 2021, dated 2023):

What was measured:
[1] = biological target: hGYS1 enzyme (recombinant hGYS1/GN1 protein) (Homo sapiens (Human), UniProt P13807); experiment: GYS1 coupled enzyme assay (PK/LDH); format: biochemical; details: hGYS1/GN1 50 nM, UDP-Glucose 0.8 mM, G6P 1 mM; geometric mean of at least 2 runs
[2] = test system: hGYS1 enzyme / glycogen synthesis in HeLa cells; experiment: GYS1 cell based assay (glycogen synthesis, Glucose-glo); set-up: species or system human; details: Homo sapiens, HeLa, 24 h, 24 h incubation, 20 mM glucose, geometric mean of at least 2 runs
Method in brief: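 HeLa cells starved 24 h in medium containing only 1× Glutamax were plated onto compound in medium with 20 mM glucose (1% DMSO final) for 24 h, 37 °C, 5% CO2. Acid lysates were Tris-quenched, glucoamylase-digested (pH 5.3, 1 h, 37 °C) and read by Glucose-glo luminescence. IC50 came from Hill fits, as geometric mean of ≥2 runs.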

[3] = biological target: hGYS2 enzyme (recombinant hGYS2/GN1 protein) (Homo sapiens (Human), UniProt P54840); experiment: GYS2 coupled enzyme assay (PK/LDH); format: biochemical; details: geometric mean of at least 2 assay runs on separate days, read-out: Avg_IC50
Method in brief: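 Continuous PK/LDH-coupled readout of NADH loss at 340 nm over 10 min, with 200 nM hGYS2/GN1 and 2 mM each of UDP-glucose, glucose-6-phosphate and PEP, in 50 mM Tris pH 7.5 with 0.2% glycogen and 2.5% DMSO. Slopes were normalized to controls and IC50s fit to a Hill curve from duplicates.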

Chain of hGYS2 enzyme (recombinant hGYS2/GN1 protein) (P54840 whole entry): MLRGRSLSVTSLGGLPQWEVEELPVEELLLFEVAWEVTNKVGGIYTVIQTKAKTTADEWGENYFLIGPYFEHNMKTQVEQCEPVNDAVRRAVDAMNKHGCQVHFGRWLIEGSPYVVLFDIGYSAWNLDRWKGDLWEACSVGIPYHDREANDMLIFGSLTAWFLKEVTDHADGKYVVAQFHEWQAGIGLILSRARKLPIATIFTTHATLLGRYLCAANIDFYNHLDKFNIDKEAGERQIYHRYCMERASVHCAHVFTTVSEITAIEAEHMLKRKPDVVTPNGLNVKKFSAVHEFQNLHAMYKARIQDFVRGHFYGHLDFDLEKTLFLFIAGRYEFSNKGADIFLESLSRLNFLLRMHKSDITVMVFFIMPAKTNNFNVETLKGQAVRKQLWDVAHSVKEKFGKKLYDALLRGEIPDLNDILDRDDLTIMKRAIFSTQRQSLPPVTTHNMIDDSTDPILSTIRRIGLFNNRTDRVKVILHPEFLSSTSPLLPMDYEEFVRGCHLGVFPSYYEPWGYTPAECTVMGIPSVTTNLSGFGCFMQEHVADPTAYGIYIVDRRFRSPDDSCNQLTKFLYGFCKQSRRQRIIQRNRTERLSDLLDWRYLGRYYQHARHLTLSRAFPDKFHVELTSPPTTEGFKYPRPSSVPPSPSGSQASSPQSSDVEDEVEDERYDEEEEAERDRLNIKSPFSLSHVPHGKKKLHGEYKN
Chain of hGYS2 enzyme (recombinant hGYS2/GN1 protein) (P46976 whole entry partner): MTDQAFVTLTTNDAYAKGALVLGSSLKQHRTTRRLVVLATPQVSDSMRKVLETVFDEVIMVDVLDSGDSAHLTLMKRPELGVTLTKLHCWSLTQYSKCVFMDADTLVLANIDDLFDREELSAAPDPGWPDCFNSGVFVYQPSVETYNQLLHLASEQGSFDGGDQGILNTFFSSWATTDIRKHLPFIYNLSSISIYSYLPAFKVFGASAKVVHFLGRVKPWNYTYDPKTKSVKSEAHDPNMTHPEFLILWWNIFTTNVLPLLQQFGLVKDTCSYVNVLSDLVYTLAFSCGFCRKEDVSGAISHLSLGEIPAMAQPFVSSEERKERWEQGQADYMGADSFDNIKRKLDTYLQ
Chain of hGYS1 enzyme (recombinant hGYS1/GN1 protein) (P13807 whole entry): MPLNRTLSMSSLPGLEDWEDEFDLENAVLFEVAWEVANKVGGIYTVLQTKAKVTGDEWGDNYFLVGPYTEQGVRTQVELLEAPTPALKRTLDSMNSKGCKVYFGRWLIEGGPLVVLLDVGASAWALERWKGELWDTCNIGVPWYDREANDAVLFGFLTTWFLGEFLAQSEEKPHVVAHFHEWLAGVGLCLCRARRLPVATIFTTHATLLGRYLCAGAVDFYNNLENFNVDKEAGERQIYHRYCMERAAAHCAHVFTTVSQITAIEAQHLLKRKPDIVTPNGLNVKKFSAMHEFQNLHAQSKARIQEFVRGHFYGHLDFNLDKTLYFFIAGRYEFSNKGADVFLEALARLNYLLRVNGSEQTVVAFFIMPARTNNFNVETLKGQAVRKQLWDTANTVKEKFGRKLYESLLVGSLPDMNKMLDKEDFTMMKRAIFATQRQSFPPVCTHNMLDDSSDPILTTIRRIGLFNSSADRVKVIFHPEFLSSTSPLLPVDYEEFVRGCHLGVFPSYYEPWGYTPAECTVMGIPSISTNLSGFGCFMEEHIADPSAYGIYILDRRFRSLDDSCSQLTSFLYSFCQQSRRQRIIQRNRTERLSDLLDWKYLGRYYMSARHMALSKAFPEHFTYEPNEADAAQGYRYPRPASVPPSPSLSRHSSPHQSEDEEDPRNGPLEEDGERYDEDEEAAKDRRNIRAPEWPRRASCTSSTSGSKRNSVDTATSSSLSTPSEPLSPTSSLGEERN
Chain of hGYS1 enzyme (recombinant hGYS1/GN1 protein) (P46976 whole entry partner): as the sequence (P46976 whole entry partner) above

In the case of O=C(N[C@@H](c1ccccc1)c1ccc(C2CC2)c(F)c1)[C@@H]1C[C@@H](F)CN1C(=O)Cc1nnc(C(F)F)o1 [Compound 427, (2S,4R)-N-[(S)-(4-cyclopropyl-3-fluorophenyl)(phenyl)methyl]-1-{2-[5-(difluoromethyl)-1,3,4-oxadiazol-2-yl]acetyl}-4-fluoropyrrolidine-2-carboxamide], the IC50 [1] is reported as 165 nM, the IC50 [2] is reported as 1960 nM and the IC50 [3] is reported as > 100000 nM.
O=C(N[C@@H](c1ccccc1)c1ccc(C2CC2)c(F)c1)[C@@H]1C[C@@H](F)CN1C(=O)Cn1cnnn1 [Compound 431, (2S,4R)-N-[(S)-(4-cyclopropyl-3-fluorophenyl)(phenyl)methyl]-4-fluoro-1-[2-(1H-1,2,3,4-tetrazol-1-yl)acetyl]pyrrolidine-2-carboxamide] was tested, and the IC50 [1] was 221 nM, the IC50 [2] was 3350 nM and the IC50 [3] was > 100000 nM.
For Cc1nnn(CC(=O)N2C[C@H](F)C[C@H]2C(=O)N[C@@H](c2ccccc2)c2ccc(C3CC3)c(F)c2)n1 [Compound 433, (2S,4R)-N-[(S)-(4-cyclopropyl-3-fluorophenyl)(phenyl)methyl]-4-fluoro-1-[2-(5-methyl-2H-1,2,3,4-tetrazol-2-yl)acetyl]pyrrolidine-2-carboxamide], the IC50 [1] was 91 nM, the IC50 [2] was 1480 nM and the IC50 [3] was > 100000 nM.
For Cc1cn(CC(=O)N2C[C@H](F)C[C@H]2C(=O)N[C@@H](c2ccccc2)c2ccc(C3CC3)c(F)c2)c(=O)[nH]c1=O [Compound 442, (2S,4R)-N-[(S)-(4-cyclopropyl-3-fluorophenyl)(phenyl)methyl]-4-fluoro-1-[2-(5-methyl-2,4-dioxo-1,2,3,4-tetrahydropyrimidin-1-yl)acetyl]pyrrolidine-2-carboxamide], the IC50 [1] was 23 nM, the IC50 [2] was 860 nM and the IC50 [3] was > 100000 nM.
For CN1CCN(C(=O)OCC(=O)N2C[C@H](F)C[C@H]2C(=O)N[C@@H](c2ccccc2)c2ccc(C3CC3)c(F)c2)CC1 [Compound 445, 2-[(2S,4R)-2-{[(S)-(4-cyclopropyl-3-fluorophenyl)(phenyl)methyl]carbamoyl}-4-fluoropyrrolidin-1-yl]-2-oxoethyl 4-methylpiperazine-1-carboxylate], the IC50 [1] was 75 nM, the IC50 [2] was 1660 nM and the IC50 [3] was > 100000 nM.
In the case of O=C(N[C@@H](c1ccccc1)c1ccc(C2CC2)c(F)c1)[C@@H]1C[C@@H](F)CN1C(=O)COC(=O)N1CCN(CC(F)(F)F)CC1 [Compound 446, 2-[(2S,4R)-2-{[(S)-(4-cyclopropyl-3-fluorophenyl)(phenyl)methyl]carbamoyl}-4-fluoropyrrolidin-1-yl]-2-oxoethyl 4-(2,2,2-trifluoroethyl)piperazine-1-carboxylate], the IC50 [1] is reported as 98 nM, the IC50 [2] is reported as 2190 nM and the IC50 [3] is reported as > 100000 nM.
O=C(N[C@@H](c1ccccc1)c1ccc(C2CC2)c(F)c1)[C@@H]1C[C@@H](F)CN1C(=O)COC(=O)N1CCN(CC2CC2)CC1 [Compound 447, 2-[(2S,4R)-2-{[(S)-(4-cyclopropyl-3-fluorophenyl)(phenyl)methyl]carbamoyl}-4-fluoropyrrolidin-1-yl]-2-oxoethyl 4-(cyclopropylmethyl) piperazine-1-carboxylate] was tested, and the IC50 [1] was 96 nM, the IC50 [2] was 5320 nM and the IC50 [3] was > 100000 nM.
For COCCN1CCN(C(=O)OCC(=O)N2C[C@H](F)C[C@H]2C(=O)N[C@@H](c2ccccc2)c2ccc(C3CC3)c(F)c2)CC1 [Compound 448, 2-[(2S,4R)-2-{[(S)-(4-cyclopropyl-3-fluorophenyl)(phenyl)methyl]carbamoyl}-4-fluoropyrrolidin-1-yl]-2-oxoethyl 4-(2-methoxyethyl)piperazine-1-carboxylate], the IC50 [1] was 71 nM, the IC50 [2] was 1350 nM and the IC50 [3] was > 100000 nM.
In the case of Cn1c(=O)ccn(CC(=O)N2C[C@H](F)C[C@H]2C(=O)N[C@@H](c2ccccc2)c2ccc(C3CC3)c(F)c2)c1=O [Compound 449, (2S,4R)-N-[(S)-(4-cyclopropyl-3-fluorophenyl)(phenyl)methyl]-4-fluoro-1-[2-(3-methyl-2,4-dioxo-1,2,3,4-tetrahydropyrimidin-1-yl)acetyl]pyrrolidine-2-carboxamide], the IC50 [1] is reported as 39 nM, the IC50 [2] is reported as 700 nM and the IC50 [3] is reported as > 100000 nM.
O=C(N[C@@H](c1ccccc1)c1ccc(C2CC2)c(F)c1)[C@@H]1C[C@@H](F)CN1C(=O)Cn1nnc2ccccc21 [Compound 450, (2S,4R)-1-[2-(1H-1,2,3-benzotriazol-1-yl)acetyl]-N-[(S)-(4-cyclopropyl-3-fluorophenyl)(phenyl)methyl]-4-fluoropyrrolidine-2-carboxamide] was tested, and the IC50 [1] was 94 nM, the IC50 [2] was 1730 nM and the IC50 [3] was > 100000 nM.
O=C(N[C@@H](c1ccccc1)c1ccc(C2CC2)c(F)c1)[C@@H]1C[C@@H](F)CN1C(=O)COC(=O)N1CCC1 [Compound 451, 2-[(2S,4R)-2-{[(S)-(4-cyclopropyl-3-fluorophenyl)(phenyl)methyl]carbamoyl}-4-fluoropyrrolidin-1-yl]-2-oxoethyl azetidine-1-carboxylate] was tested, and the IC50 [1] was 95 nM, the IC50 [2] was 1570 nM and the IC50 [3] was > 100000 nM.
O=C(N[C@@H](c1ccccc1)c1ccc(C2CC2)c(F)c1)[C@@H]1C[C@@H](F)CN1C(=O)CNC(=O)N1CCOCC1 [Compound 452, N-{2-[(2S,4R)-2-{[(S)-(4-cyclopropyl-3-fluorophenyl)(phenyl)methyl]carbamoyl}-4-fluoropyrrolidin-1-yl]-2-oxoethyl} morpholine-4-carboxamide] was tested, and the IC50 [1] was 40 nM, the IC50 [2] was 980 nM and the IC50 [3] was > 100000 nM.
For O=C(N[C@@H](c1ccccc1)c1ccc(C2CC2)c(F)c1)[C@@H]1C[C@@H](F)CN1C(=O)CN1Cc2ccccc2C1=O [Compound 453, (2S,4R)-N-[(S)-(4-cyclopropyl-3-fluorophenyl)(phenyl)methyl]-4-fluoro-1-[2-(1-oxo-2,3-dihydro-1H-isoindol-2-yl)acetyl] pyrrolidine-2-carboxamide], the IC50 [1] was 77 nM, the IC50 [2] was 1840 nM and the IC50 [3] was > 100000 nM.
O=C(N[C@@H](c1ccccc1)c1ccc(C2CC2)c(F)c1)[C@@H]1C[C@@H](F)CN1C(=O)CN1C(=O)Cc2ccccc21 [Compound 454, (2S,4R)-N-[(S)-(4-cyclopropyl-3-fluorophenyl)(phenyl)methyl]-4-fluoro-1-[2-(2-oxo-2,3-dihydro-1H-indol-1-yl)acetyl]pyrrolidine-2-carboxamide] was tested, and the IC50 [1] was 72 nM, the IC50 [2] was 1600 nM and the IC50 [3] was > 100000 nM.
CN1C(=O)C(CC(=O)N2C[C@H](F)C[C@H]2C(=O)N[C@@H](c2ccccc2)c2ccc(C3CC3)c(F)c2)c2ccccc21 (stereo partly drawn) [Compound 455, (2S,4R)-N-[(S)-(4-cyclopropyl-3-fluorophenyl)(phenyl)methyl]-4-fluoro-1-[2-(1-methyl-2-oxo-2,3-dihydro-1H-indol-3-yl)acetyl]pyrrolidine-2-carboxamide] was tested, and the IC50 [1] was 291 nM, the IC50 [2] was 3620 nM and the IC50 [3] was > 100000 nM.
For O=C(N[C@@H](c1ccccc1)c1ccc(C2CC2)c(F)c1)[C@@H]1C[C@@H](F)CN1C(=O)Cn1c(=O)[nH]c2ccccc21 [Compound 456, (2S,4R)-N-[(S)-(4-cyclopropyl-3-fluorophenyl)(phenyl)methyl]-4-fluoro-1-[2-(2-oxo-2,3-dihydro-1H-1,3-benzodiazol-1-yl)acetyl]pyrrolidine-2-carboxamide], the IC50 [1] was 55 nM, the IC50 [2] was 1080 nM and the IC50 [3] was > 100000 nM.
Cn1c(=O)n(CC(=O)N2C[C@H](F)C[C@H]2C(=O)N[C@@H](c2ccccc2)c2ccc(C3CC3)c(F)c2)c2ccccc21 [Compound 457, (2S,4R)-N-[(S)-(4-cyclopropyl-3-fluorophenyl)(phenyl)methyl]-4-fluoro-1-[2-(3-methyl-2-oxo-2,3-dihydro-1H-1,3-benzodiazol-1-yl)acetyl] pyrrolidine-2-carboxamide] was tested, and the IC50 [1] was 32 nM, the IC50 [2] was 720 nM and the IC50 [3] was > 100000 nM.
With O=C(N[C@@H](c1ccccc1)c1ccc(C2CC2)c(F)c1)[C@@H]1C[C@@H](F)CN1C(=O)Cc1n[nH]c2ccccc12 [Compound 458, (2S,4R)-N-[(S)-(4-cyclopropyl-3-fluorophenyl)(phenyl)methyl]-4-fluoro-1-[2-(1H-indazol-3-yl)acetyl]pyrrolidine-2-carboxamide] the IC50 [1] was 71 nM, the IC50 [2] was 1330 nM and the IC50 [3] was > 100000 nM.
With Cn1nc(CC(=O)N2C[C@H](F)C[C@H]2C(=O)N[C@@H](c2ccccc2)c2ccc(C3CC3)c(F)c2)c2ccccc21 [Compound 459, (2S,4R)-N-[(S)-(4-cyclopropyl-3-fluorophenyl)(phenyl)methyl]-4-fluoro-1-[2-(1-methyl-1H-indazol-3-yl)acetyl]pyrrolidine-2-carboxamide] the IC50 [1] was 28 nM, the IC50 [2] was 750 nM and the IC50 [3] was > 100000 nM.
With Cn1c(CC(=O)N2C[C@H](F)C[C@H]2C(=O)N[C@@H](c2ccccc2)c2ccc(C3CC3)c(F)c2)cc2ccccc21 [Compound 462, (2S,4R)-N-[(S)-(4-cyclopropyl-3-fluorophenyl)(phenyl)methyl]-4-fluoro-1-[2-(1-methyl-1H-indol-2-yl)acetyl]pyrrolidine-2-carboxamide] the IC50 [1] was 24 nM, the IC50 [2] was 640 nM and the IC50 [3] was > 100000 nM.
In the case of Cn1cc(CC(=O)N2C[C@H](F)C[C@H]2C(=O)N[C@@H](c2ccccc2)c2ccc(C3CC3)c(F)c2)c2ccccc21 [Compound 463, (2S,4R)-N-[(S)-(4-cyclopropyl-3-fluorophenyl)(phenyl)methyl]-4-fluoro-1-[2-(1-methyl-1H-indol-3-yl)acetyl]pyrrolidine-2-carboxamide], the IC50 [1] is reported as 25 nM, the IC50 [2] is reported as 670 nM and the IC50 [3] is reported as > 100000 nM.
